{"source": "paper PMC8717366", "about": "“Synthesis and Pharmacological Characterization of Visabron, a Backbone Cyclic Peptide Dual Antagonist of α4β1 (VLA-4)/α9β1 Integrin for Therapy of Multiple Sclerosis” (JACS Au, 2021)", "target": "T1, LynA (Homo sapiens, UniProt P07948)", "T1 construct": "purchased Carna 08-171", "T1 sequence (P07948 whole entry)": "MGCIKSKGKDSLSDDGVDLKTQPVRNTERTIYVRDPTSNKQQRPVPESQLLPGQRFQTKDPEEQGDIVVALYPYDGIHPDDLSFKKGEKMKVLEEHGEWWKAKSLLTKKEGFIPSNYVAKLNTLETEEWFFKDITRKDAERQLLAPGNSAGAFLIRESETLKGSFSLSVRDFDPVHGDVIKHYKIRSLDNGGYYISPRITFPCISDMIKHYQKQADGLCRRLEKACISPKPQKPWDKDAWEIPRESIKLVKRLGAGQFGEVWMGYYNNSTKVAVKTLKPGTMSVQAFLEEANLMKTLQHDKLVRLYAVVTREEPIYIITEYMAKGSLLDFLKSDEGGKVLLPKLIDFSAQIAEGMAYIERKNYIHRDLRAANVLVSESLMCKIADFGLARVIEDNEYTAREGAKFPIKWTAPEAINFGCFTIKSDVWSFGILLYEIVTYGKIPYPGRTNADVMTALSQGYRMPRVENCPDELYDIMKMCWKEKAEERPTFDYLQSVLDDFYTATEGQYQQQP", "assay": "PhosphoSens CSox-based kinase assay, LynA", "assay_type": "biochemical", "conditions": "1 mM, but not 0.1 mM; Figure 7", "method": "Kinase activity was measured using the PhosphoSenstechnology (AssayQuant Technologies Inc., Marlborough, MA) as detailed in the Supporting Information. […]\nVisabron c (4-4) safety by in vitro evaluation using PhosphoSens - CSox based kinase assays:\nA powerful method was used to measure the activity of recombinant protein kinases using a homogeneous and continuous (kinetic) format, where the level of chelation-enhanced fluorescence (CHEF) that is directly proportional to the amount of phosphorylated, real-time sensors consisting of sulfonamido-oxine (Sox) chromophore, linked to a peptide or protein substrates of selective kinases 6. […]\nKinase activity measurements: Kinase activity was measured continuously using the PhosphoSens® technology (AssayQuant Technologies Inc., Marlborough, MA) according to the manufacturers’ recommendations. This one-step homogeneous assay format uses chelation -enhanced fluorescence via optimized substrate sensors containing the unnatural fluorogenic amino -acid Sox. […]\nFinal reaction conditions : Protein kinase activity was determined in 54 mM HEPES, pH 7.5, 1 mM ATP, 1.2 mM DTT, 0.012% Brij-35, 0.52 mM EGTA, 10 mM MgCl2, 1% glycerol, 0.2mg/ml BSA, and 15 μM Sox -based sensor. […]", "note": "Numbered stars: 1 amine (or outer) side, 2 acyl side, 3 side chain; on linkers, the order of the positions; unused ones are H or OH. Bridge positions count the residues as written; N and C are the ends. Square brackets hold non-standard residues; d marks the D form. Peptide text beside a SMILES is read from it. CO = O=C([*:1])[*:2]; Nlys = NCCCCNCC(=O)O", "data": [{"smiles": "CSCC[C@@H]1NC(=O)[C@H]([C@@H](C)O)NC(=O)CN(C(=O)[C@@H](N)CCCCN)CCCCNC(=O)NCCCCN(CC(=O)N[C@@H](CC(C)C)C(N)=O)C(=O)[C@H](CC(=O)O)NC(=O)[C@H](CC(C)C)NC1=O", "note": "[visabron c (4–4)] (H-K[Nlys]TMLD[Nlys]L-NH2; linker 2-7 via CO)", "values": [{"measurement": "inhibition at 1000 µM", "result": "25 to 40", "unit": "%"}]}]}
